Assay [1] deals with RAW 264.7 cells. Put plainly: LPS-induced HMGB1 protein in RAW 264.7 cell supernatants by Western blot. The format is cell-based, Murine. The note with it: LPS 200 ng/ml, 0.1 to 10 μM, 16 h. The protocol: Treatment of RAW 264.7 cells with caspase inhibitor and Western blotting of HMGB1. Murine macrophage-like RAW 264.7 cells (American Type Culture Collection, ATCC, Rockville, Md.) were cultured in a 24-well culture dish in RPMI 1640 medium (Life Technologies, Grand Island, N.Y.), supplemented with 10% fetal bovine serum (Gemini, Catabasas, Calif.), penicillin and streptomycin (Life Technologies). Cells were used at 90% confluence and treatment was carried out in serum-free Opti-MEM I medium (Life Technologies). The cells were treated with LPS (200 ng/ml, Sigma, E. coli. 0111:B4) and various concentrations, ranging from 0.1 to 10 μM, of either the caspase inhibitor, Z-VAD-FMK (BD Biosciences), or a control peptide, Z-FA-FMK (BD Biosciences), in Opti-MEM I medium (Life Technologies, Grand Island, N.Y.). After 16 h, cell culture supernatants were concentrated by Centricon 10 (Millpore Corp., Bedford, Mass.) and HMGB1 levels were determined by Western blot. […] Western blots were scanned with a silver image scanner (Silverscanner II, Lacie Limited, Beaverton, Oreg.), and the relative band intensity was quantified using the NIH image 1.59 software. The levels of HMGB1 were calculated with reference to standard curves generated with purified HMGB1.
A general note: A western blot detects proteins with antibodies after separation by electrophoresis.

Assay [2] deals with RAW 264.7 cells. Nature of the assay: HMGB1 translocation in LPS-treated RAW 264.7 cells by immunofluorescence. The format is cell-based, Murine. The note with it: LPS 100 ng/ml, 1 μM, 16 hours. The protocol: RAW 264.7 cells were plated in 8-well slide chambers (Lab-Tek, Nalge Nunc Internationals, Naperville, Ill.) and used at 60% confluence. Cells were incubated with LPS (100 ng/ml) alone, or LPS (100 ng/ml) with either 1 μM Z-VAD-FMK (VAD) or Z-FA-FMK control peptide for 16 hours in Opti-MEM I medium. Cells were washed 3 times with phosphate-buffered saline (PBS) at pH 7.2 and fixed in 2% neutral formalin for 20 minutes at room temperature. Polyclonal anti-HMGB1 antibody was added at a concentration of 2.5 μg/ml and incubated for an additional 30 minutes at room temperature. FITC-labeled anti-rabbit IgG was added (1:300 dilution, Sigma, St. Louis, Mo.; Cat. No. F9887). Cells were then washed 3 times with PBS (pH 7.2) with 0.1% saponin (Sigma Cat. #S4521), and mounted for fluorescent confocal microscopy analysis. To mount cells on a slide, one drop of VECTASHIELD mounting medium (Vector Lab, Cat#H-10000) was dispensed on to the section and allowed to cover the entire section. A coverslip was added, and the slides were imaged using a Zeiss, Axiovert 200 microscope (Gottingen, Germany).

A further assay relates to IL-6, KC, MIP-2. Nature of the assay: Cytokine levels (IL-6, KC, MIP-2) in serum and BAL of CLP septic mice by ELISA. The format is in vivo, BALB/c mice. The following applies: 0.5 mg IP at 90 min after surgery, 24 h. The protocol: (§1) Cecal ligation and puncture (CLP) surgery was performed on BALB/c mice to induce sepsis as described previously (Fink, M. P. and Heard, S. O., J. Surg. Res. 49:186-96 (1990); Friedman, G., et al., Crit. Care Med. 26:2078-86 (1998); Remick, D., et al., Shock 4:89-95 (1995)). At 90 min after the surgery, 0.5 mg of either Z-VAD-FMK (VAD) caspase inhibitor or Z-FA-FMK control peptide was administered to each mouse by intraperitoneal injection. Mice were euthanized 24 h after CLP. HMGB1 protein levels in bronchoalveolar fluid (BAL), peritoneal fluid and serum were measured (FIG. 6). Protein levels of certain serum (e.g., IL-6, KC, MIP-2) and BAL (e.g., KC, MW-2) cytokines were determined (FIG. 7). Cell-conditioned medium, lung lavage fluid or peritoneal lavage fluid (100-2000) were first concentrated by passing through Centricon 10 (Millpore Corp. Bedford, Mass.). Cytokines were measured by using an enzyme-linked immunosorbent assay (ELISA) kit according to the instructions of the manufacturer (R & D System Inc., Minneapolis, Minn.). To determine HMGB1 concentrations, Centricon 10-filtered samples were fractionated by SDS-PAGE, transferred to PVDF Immunoblot membrane (Bio-Rad laboratories, Hercules, Calif.), and probed with polyclonal anti-HMGB1 IgG (5 μg/ml) for Western blot. Donkey anti-rabbit IgG conjugated with HRP (Amersham, Little Chalfont Buckinghamshire, England) and used at final dilution of 1:5,000. Polyclonal antibodies raised against purified HMGB1 were generated in rabbits (Cocalico Biologicals, Inc., Reamstown, Pa.) and IgG was purified using protein A agarose according to manufacturer's instructions (Pierce, Rockford, Ill.). Western blots were scanned with a silver image scanner ([…] Limited, Beaverton, Oreg.), and the relative band intensity was quantified by using the NIH image 1.59° software. The levels of HMGB1 were calculated with reference to standard curves generated with purified HMGB1.

In a further assay the test system is HMGB1. Put plainly: HMGB1 protein levels in BAL, peritoneal fluid and serum of CLP septic mice. The format is in vivo, BALB/c mice. The following applies: 0.5 mg IP at 90 min after surgery, 24 h, BAL fluid. The protocol: as §1, with “To determine HMGB1 concentrations, Centricon 10-filtered samples were fractionated by SDS-PAGE, transferred to PVDF Immunoblot membrane (Bio-Rad laboratories, Hercules, Calif.), and probed with polyclonal anti-HMGB1 IgG (5 μg/ml) for Western blot. Donkey anti-rabbit IgG conjugated with HRP (Amersham, Little Chalfont Buckinghamshire, England) and used at final dilution of 1:5,000. Polyclonal antibodies raised against purified HMGB1 were generated in rabbits (Cocalico Biologicals, Inc., Reamstown, Pa.) and IgG was purified using protein A agarose according to manufacturer's instructions (Pierce, Rockford, Ill.).” left out

The subject of another assay is apoptotic cells. Put plainly: Caspase 3 and TUNEL staining of spleen and thymus sections of CLP septic mice. It is filed as in vivo, BALB/c mice. The following applies: 0.5 mg IP at 90 min after surgery, 24 h. The protocol: Cecal ligation and puncture (CLP) surgery was performed on BALB/c mice to induce sepsis as described previously (Fink, M. P. and Heard, S. O., J. Surg. Res. 49:186-96 (1990); Friedman, G., et al., Crit. Care Med. 26:2078-86 (1998); Remick, D., et al., Shock 4:89-95 (1995)). At 90 min after the surgery, 0.5 mg of either Z-VAD-FMK (VAD) caspase inhibitor or Z-FA-FMK control peptide was administered to each mouse by intraperitoneal injection. Mice were euthanized 24 h after CLP.
Apoptotic cells were detected by performing Caspase 3 staining (FIG. 8A) and TUNEL staining (FIG. 8B) on fixed spleen and thymus sections from sacrificed mice that were either untreated (Normal) or treated with Z-VAD-FMK (VAD) caspase inhibitor (CLP+VAD) or Z-FA-FMK control peptide (CLP+ctrl) following CLP surgery. […] mice were analyzed in each group. Tissue sections were cut at 5 μm. Sections were placed on glass slides and subjected to staining using a TUNEL assay, performed according to manufacturer's protocol (ApoAlert DNA fragmentation assay kit, BD BioSciences, Palo Alto, Calif., Cat# K2024-1). […] Four to five mice were analyzed from each group.

The text below walks through data of patent US20100040607A1, “Combination Therapy with Inhibitors of HMGB and Caspase for the Treatment of Inflammatory Diseases” (priority 2005, published 2010).

Each structure is given as a SMILES string. Peptide text beside a SMILES is read from it. * marks the point of attachment. Cbz = O=C(OCc1ccccc1)*; CH2F = FC*

Turning to `COC(=O)CC(NC(=O)C(C)NC(=O)C(NC(=O)OCc1ccccc1)C(C)C)C(=O)CF` (stereo not drawn) [Z-VAD-FMK, carbobenzoxyl-valyl-alanyl-aspartyl-[O-methyl]-fluoromethylketone] (Cbz-Val-Ala-Asp(OMe)-CH2F; configuration not given here), the “LPS-induced expression of HMGB1 protein” value with RAW 264.7 cells [1] is listed as “inhibited LPS-induced expression of HMGB1 protein in a dose-dependent manner”. Also, the “HMGB1 translocation to the cytoplasm” value with RAW 264.7 cells [2] is on record as “inhibited HMGB1 translocation to the cytoplasm”. Besides, in the assay with IL-6, KC, MIP-2, the “IL-6 expression in septic mice” value is “inhibited expression”, the “KC expression in septic mice” value is on record as “inhibited expression” and the “MIP-2 expression in septic mice” value is on record as “inhibited expression”. The “HMGB1 expression in septic mice” value in the assay with HMGB1 is on record as “inhibited expression”. Besides, the “number of apoptotic cells in spleen and thymus sections” value in the assay on apoptotic cells is “reduced the number of apoptotic cells”.
Take `CC(NC(=O)[C@H](Cc1ccccc1)NC(=O)OCc1ccccc1)C(=O)CF` (some centres unmarked) [Z-FA-FMK]: the “LPS-induced expression of HMGB1 protein” value in the assay with RAW 264.7 cells [1] was “did not have an effect on HMGB1 expression”.
